{
  "source": "patent US11117947B2",
  "about": "“Double-acylated GLP-1 derivatives” (Novo Nordisk A/S, priority 2011, dated 2021)",
  "key": {"[1]": {"test": "Estimate of oral bioavailability: gut injection in rat (caprate), exposure in plasma", "format": "in vivo", "settings": "injection in jejunum, 1000 uM in 55 mg/ml sodium caprate, plasma concentration (pM) at 30 min divided by dosing solution concentration (μM), mean n=4", "method": "The GLP-1 derivatives were tested in a concentration of 1000 uM in a solution of 55 mg/ml sodium caprate.\nMale Sprague Dawley rats with a body weight upon arrival of approximately 240 g were obtained from Taconic (Denmark) and assigned to the different treatments by simple randomisation, 4 rats per group.\nThe GLP-1 derivatives were administered in the jejunum either in the proximal part (10 cm distal for the duodenum) or in the mid-intestine (50 cm proximal for the cecum). A PE50-catheter, 10 cm long was inserted into the jejunum, forwarded at least 1.5 cm into the jejunum, and secured before dosing by ligature around the gut and the catheter with 3/0 suture distal to tip to prevent leak or catheter displacement. Catheter was placed without syringe and needle and 2 ml saline was administered into abdomen before closing the incision with wound clips.\n100 μl of the respective GLP-1 derivative was injected into the jejunal lumen through the catheter with a 1 ml syringe. Subsequently, 200 μl of air was pushed into the jejunal lumen with another syringe to “flush” the catheter. This syringe was leaved connected to the catheter to prevent flow back into the catheter.\nBlood samples (200 ul) were collected at desired intervals (usually at times 0, 10, 30, 60, 120 and 240 min) into EDTA tubes from the tail vein and centrifuged 5 minutes, 10000G, at 4° C. within 20 minutes. […] 12, p. 240-247. The donor beads were coated with streptavidin, while acceptor beads were conjugated with a monoclonal antibody recognising a mid-/C-terminal epitope of the peptide. Another monoclonal antibody, specific for the N-terminus, was biotinylated. The three reactants were combined with the analyte and formed a two-sited immuno-complex. Illumination of the complex released singlet oxygen atoms from the donor beads, which were channeled into the acceptor beads and triggered chemiluminescence which was measured in an Envision plate reader. The amount of light was proportional to the concentration of the compound.\nAfter the blood sampling the rats were sacrificed under anaesthesia and the abdomen was opened to verify correct catheter placement.\nThe mean (n=4) plasma concentrations (pmol/l) were determined as a function of time."}, "human GLP-1 receptor": {"target": "T1, human GLP-1 receptor (Homo sapiens, UniProt P43220)", "T1 construct": "expressed in transfected cells; membranes", "T1 sequence (P43220 24-463)": "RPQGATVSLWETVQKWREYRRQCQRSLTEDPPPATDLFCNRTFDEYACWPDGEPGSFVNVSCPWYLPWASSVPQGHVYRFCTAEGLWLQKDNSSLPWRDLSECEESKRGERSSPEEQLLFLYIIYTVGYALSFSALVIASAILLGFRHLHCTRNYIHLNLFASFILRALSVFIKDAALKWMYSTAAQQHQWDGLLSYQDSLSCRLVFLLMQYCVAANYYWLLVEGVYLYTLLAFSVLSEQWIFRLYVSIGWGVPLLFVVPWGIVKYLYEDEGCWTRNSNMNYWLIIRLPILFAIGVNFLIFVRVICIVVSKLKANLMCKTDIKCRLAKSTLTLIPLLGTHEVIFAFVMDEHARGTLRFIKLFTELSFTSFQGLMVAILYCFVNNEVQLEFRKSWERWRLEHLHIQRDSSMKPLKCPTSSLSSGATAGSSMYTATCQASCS", "test": "GLP-1 receptor binding: displacement of 125I-GLP-1 (SPA) at low and high albumin", "method": "The purpose of this experiment is to investigate the binding to the GLP-1 receptor of the GLP-1 derivatives, and how the binding is potentially influenced by the presence of albumin. This is done in an in vitro experiment as described below.\nIn order to test the binding of the derivatives to albumin, the assay was performed with a low concentration of albumin (0.001%—corresponding to the residual amount thereof in the tracer), as well as with a high concentration of albumin (2.0% added). A shift in the binding affinity, IC50, is an indication that the peptide in question binds to albumin, and thereby a prediction of a potential protracted pharmacokinetic profile of the peptide in question in animal models.\nSpecies (in vitro): Hamster\nBiological End Point: Receptor Binding\nA stable transfected cell line and a high expressing clone were selected for screening. The cells were grown at 5% CO2 in DMEM, 10% FCS, 1% Pen/Strep (Penicillin/Streptomycin) and 1.0 mg/ml of the selection marker G418.\nThe cells (approx. 80% confluence) were washed twice in PBS and harvested with Versene (aqueous solution of the tetrasodium salt of ethylenediaminetetraacetic acid), following which they were separated by centrifugation at 1000 rpm for 5 min. The cells/cell pellet must be kept on ice to the extent possible in the subsequent steps. The cell pellet was homogenised with Ultrathurrax for 20-30 seconds in a suitable amount of Buffer 1 (depending on the amount of cells, but e.g. 10 ml). The homogenate was centrifuged at 20000 rpm for 15 minutes. The pellet was resuspended (homogenised) in 10 ml Buffer 2 and re-centrifuged. This step was repeated once more. The resulting pellet was resuspended in Buffer 2, and the protein concentration was determined. The membranes were stored at minus 80° C.\nBuffer 1: 20 mM Na-HEPES+10 mM EDTA, pH 7.4\nBuffer 2: 20 mM Na-HEPES+0.1 mM EDTA, pH 7.4\nTest compounds, membranes, SPA-particles and [^125I]-GLP-1(7-36)NH2 were diluted in assay buffer. 50 ul (micro liter) HSA (“high albumin” experiment containing 2% HSA), or buffer (“low albumin” experiment containing 0.001% HSA), was added to Optiplate, and 25 ul of test compounds were added. 5-10 ug membrane protein/sample was added (50 ul) corresponding to 0.1-0.2 mg protein/ml (to be preferably optimised for each membrane preparation). SPA-particles (Wheatgerm agglutinin SPA beads, Perkin Elmer, #RPNQ0001) were added in an amount of 0.5 mg/well (50 ul). The incubation was started with [^125I]-GLP-1]-(7-36)NH2 (final concentration 0.06 nM corresponding to 49.880 DPM, 25 ul). The plates were sealed with PlateSealer and incubated for 120 minutes at 30° C. while shaking. The plates were centrifuged (1500 rpm, 10 min) and counted in Topcounter."}},
  "note": "Numbered stars: 1 amine (or outer) side, 2 acyl side, 3 side chain; on linkers, the order of the positions; unused ones are H or OH. Square brackets hold non-standard residues; d marks the D form. Side chains are listed from the residue outwards. Peptide text beside a SMILES is read from it. * marks the point of attachment. Decanoyl(10-(4-HOOC-PhO)) = O=C(O)c1ccc(OCCCCCCCCCC(=O)*)cc1; γGlu = O=C(O)[C@H](CCC(=O)[*:2])N[*:1]; C14 diacid = O=C(O)CCCCCCCCCCCCC(=O)*; AEEA = NCCOCCOCC(=O)O; Aib = CC(C)(N)C(=O)O",
  "data": [
    {"molecule": "CC[C@H](C)[C@H](NC(=O)[C@H](Cc1ccccc1)NC(=O)[C@H](CCCCNC(=O)COCCOCCNC(=O)COCCOCCNC(=O)CC[C@H](NC(=O)CCCCCCCCCOc1ccc(C(=O)O)cc1)C(=O)O)NC(=O)[C@H](CCCNC(=N)N)NC(=O)[C@H](C)NC(=O)[C@H](C)NC(=O)[C@H](CCC(N)=O)NC(=O)[C@H](CCC(=O)O)NC(=O)[C@H](CCC(=O)O)NC(=O)[C@H](CC(C)C)NC(=O)[C@H](Cc1ccc(O)cc1)NC(=O)[C@H](CO)NC(=O)[C@H](CO)NC(=O)[C@@H](NC(=O)[C@H](CC(=O)O)NC(=O)[C@H](CO)NC(=O)[C@@H](NC(=O)[C@H](Cc1ccccc1)NC(=O)[C@@H](NC(=O)CNC(=O)[C@H](CCC(=O)O)NC(=O)[C@H](C)NC(=O)[C@@H](N)Cc1c[nH]cn1)[C@@H](C)O)[C@@H](C)O)C(C)C)C(=O)N[C@@H](C)C(=O)N[C@@H](Cc1c[nH]c2ccccc12)C(=O)N[C@@H](CC(C)C)C(=O)N[C@H](C(=O)N[C@@H](CCCNC(=N)N)C(=O)NCC(=O)N[C@@H](CCCCNC(=O)COCCOCCNC(=O)COCCOCCNC(=O)CC[C@H](NC(=O)CCCCCCCCCOc1ccc(C(=O)O)cc1)C(=O)O)C(=O)O)C(C)C", "note": "[Example 3, N^ε27-[2-[2-[2-[[2-[2-[2-[[(4S)-4-carboxy-4-[10-(4-carboxyphenoxy)decanoylamino]butanoyl]amino]ethoxy]ethoxy]acetyl]amino]ethoxy]ethoxy]acetyl], N^ε36-[2-[2-[2-[[2-[2-[2-[[(4S)-4-carboxy-4-[10-(4-carboxyphenoxy)decanoylamino]butanoyl]amino]ethoxy]ethoxy]acetyl]amino]ethoxy]ethoxy]acetyl]-[Glu^22,Arg^26,Lys^27,Arg^34,Lys^36],des-Gly37-GLP-1-(7-36)-peptide] (H-HAEGTFTSDVSSYLEEQAARK([AEEA-AEEA-γGlu-Decanoyl(10-(4-HOOC-PhO))])FIAWLVRGK([AEEA-AEEA-γGlu-Decanoyl(10-(4-HOOC-PhO))])-OH; N-terminus and C-terminus assumed)", "values": [
      {"measurement": "Dose-corrected exposure at 30 min", "setting": "[1]", "value": 67},
      {"measurement": "IC50", "setting": "human GLP-1 receptor; high albumin, 2.0% HSA, read-out: IC50/nM (high HSA)", "value": 29, "unit": "nM"}
    ]},
    {"molecule": "CC[C@H](C)[C@H](NC(=O)[C@H](Cc1ccccc1)NC(=O)[C@H](CCCCNC(=O)COCCOCCNC(=O)COCCOCCNC(=O)CC[C@H](NC(=O)CCCCCCCCCOc1ccc(C(=O)O)cc1)C(=O)O)NC(=O)[C@H](CCCNC(=N)N)NC(=O)[C@H](C)NC(=O)[C@H](C)NC(=O)[C@H](CCC(N)=O)NC(=O)[C@H](CCC(=O)O)NC(=O)[C@H](CCC(=O)O)NC(=O)[C@H](CCCCNC(=O)COCCOCCNC(=O)COCCOCCNC(=O)CC[C@H](NC(=O)CCCCCCCCCOc1ccc(C(=O)O)cc1)C(=O)O)NC(=O)[C@H](Cc1ccc(O)cc1)NC(=O)[C@H](CO)NC(=O)[C@H](CO)NC(=O)[C@@H](NC(=O)[C@H](CC(=O)O)NC(=O)[C@H](CO)NC(=O)[C@@H](NC(=O)[C@H](Cc1ccccc1)NC(=O)[C@@H](NC(=O)CNC(=O)[C@H](CCC(=O)O)NC(=O)C(C)(C)NC(=O)[C@@H](N)Cc1c[nH]cn1)[C@@H](C)O)[C@@H](C)O)C(C)C)C(=O)N[C@@H](CCC(=O)O)C(=O)N[C@@H](Cc1c[nH]c2ccccc12)C(=O)N[C@@H](CC(C)C)C(=O)N[C@H](C(=O)NCC(=O)O)C(C)C", "note": "[Example 5, N^ε20-[2-[2-[2-[[2-[2-[2-[[(4S)-4-carboxy-4-[10-(4-carboxyphenoxy)decanoylamino]butanoyl]amino]ethoxy]ethoxy]acetyl]amino]ethoxy]ethoxy]acetyl], N^ε27-[2-[2-[2-[[2-[2-[2-[[(4S)-4-carboxy-4-[10-(4-carboxyphenoxy)decanoylamino]butanoyl]amino]ethoxy]ethoxy]acetyl]amino]ethoxy]ethoxy]acetyl]-[Aib^8,Lys^20,Glu^22,Arg^26,Lys^27,Glu^30,Gly^34]-GLP-1-(7-34)-peptide] (H-H[Aib]EGTFTSDVSSYK([AEEA-AEEA-γGlu-Decanoyl(10-(4-HOOC-PhO))])EEQAARK([AEEA-AEEA-γGlu-Decanoyl(10-(4-HOOC-PhO))])FIEWLVG-OH)", "values": [
      {"measurement": "Dose-corrected exposure at 30 min", "setting": "[1]", "value": 124},
      {"measurement": "Ratio [(IC50/nM) high HSA]/[(IC50/nM) low HSA]", "setting": "human GLP-1 receptor; 2.0% HSA vs 0.001% HSA", "value": 79}
    ]},
    {"molecule": "CC[C@H](C)[C@H](NC(=O)[C@H](Cc1ccccc1)NC(=O)[C@H](CCCCNC(=O)CC[C@H](NC(=O)COCCOCCNC(=O)COCCOCCNC(=O)CCCCCCCCCCCCC(=O)O)C(=O)O)NC(=O)[C@H](CCCNC(=N)N)NC(=O)[C@H](C)NC(=O)[C@H](CCCCNC(=O)CC[C@H](NC(=O)COCCOCCNC(=O)COCCOCCNC(=O)CCCCCCCCCCCCC(=O)O)C(=O)O)NC(=O)[C@H](CCC(N)=O)NC(=O)[C@H](CCC(=O)O)NC(=O)[C@H](CCC(=O)O)NC(=O)[C@H](CC(C)C)NC(=O)[C@H](Cc1ccc(O)cc1)NC(=O)[C@H](CO)NC(=O)[C@H](CO)NC(=O)[C@@H](NC(=O)[C@H](CC(=O)O)NC(=O)[C@H](CO)NC(=O)[C@@H](NC(=O)[C@H](Cc1ccccc1)NC(=O)[C@@H](NC(=O)CNC(=O)[C@H](CCC(=O)O)NC(=O)[C@H](C)NC(=O)[C@@H](N)Cc1c[nH]cn1)[C@@H](C)O)[C@@H](C)O)C(C)C)C(=O)N[C@@H](C)C(=O)N[C@@H](Cc1c[nH]cn1)C(=O)N[C@@H](CC(C)C)C(=O)N[C@H](C(=O)NCC(=O)O)C(C)C", "note": "[Example 22, N^ε24-[(4S)-4-carboxy-4-[[2-[2-[2-[[2-[2-[2-(13-carboxytridecanoylamino)ethoxy]ethoxy]acetyl]amino]ethoxy]ethoxy]acetyl]amino]butanoyl], N^ε27-[(4S)-4-carboxy-4-[[2-[2-[2-[[2-[2-[2-(13-carboxytridecanoylamino)ethoxy]ethoxy]acetyl]amino]ethoxy]ethoxy]acetyl]amino]butanoyl]-[Glu^22,Lys^24,Arg^26,Lys^27,His^31,Gly^34]-GLP-1-(7-34)-peptide] (H-HAEGTFTSDVSSYLEEQK([γGlu-AEEA-AEEA-C14 diacid])ARK([γGlu-AEEA-AEEA-C14 diacid])FIAHLVG-OH)", "values": [
      {"measurement": "Dose-corrected exposure at 30 min", "setting": "[1]", "value": 275}
    ]}
  ]
}
